In patent publication US7557129B2, “Cyanopyridine derivatives useful in the treatment of cancer and other disorders” (Bayer Healthcare LLC, priority 2003, dated 2009):

Row | Structure (SMILES) | melting point [°C]
1 | N#Cc1cc(Oc2ccc(NC(=O)Nc3cc(C(F)(F)F)ccn3)cc2)ccn1 [Entry 152, {[4-(2-cyano(4-pyridyloxy))phenyl]amino}-N-[4-(trifluoromethyl)(2-pyridyl)]carboxamide] | 202
2 | N#Cc1cc(Oc2ccc(NC(=O)Nc3ccc4c(c3)C(F)(F)OC(F)(F)O4)c(F)c2)ccn1 [Entry 124, {[4-(2-cyano(4-pyridyloxy))-2-fluorophenyl]amino}-N-(2,2,4,4-tetrafluorobenzo[3,4-e]1,3-dioxan-6-yl)carboxamide] | 169 to 171
3 | N#Cc1cc(Oc2ccc(NC(=O)Nc3ccc4c(c3)C(F)(F)OC(F)(F)O4)cc2F)ccn1 [Entry 127, {[4-(2-cyano(4-pyridyloxy))-3-fluorophenyl]amino}-N-(2,2,4,4-tetrafluorobenzo[3,4-e]1,3-dioxan-6-yl)carboxamide] | 196 to 199.5
4 | Cn1ncc2cc(NC(=O)Nc3ccc(Oc4ccnc(C#N)c4)cc3C(F)(F)F)ccc21 [Entry 165, {[4-(2-cyano(4-pyridyloxy))-2-(trifluoromethyl)phenyl]amino}-N-(1-methyl(1H-indazol-5-yl))carboxamide] | 239 to 240
5 | N#Cc1cc(Oc2ccc(NC(=O)Nc3cc4ccccc4cn3)c(F)c2)ccn1 [Entry 160, {[4-(2-cyano(4-pyridyloxy))-2-fluorophenyl]amino}-N-(3-isoquinolyl)carboxamide] | 218 to 220
6 | N#Cc1cc(Oc2ccc(NC(=O)Nc3cc(C(F)(F)F)ccn3)c(C(F)(F)F)c2)ccn1 [Entry 150, {[4-(2-cyano(4-pyridyloxy))-2-(trifluoromethyl)phenyl]amino}-N-[4-(trifluoromethyl)(2-pyridyl)]carboxamide] | 209 to 210.5
7 | CS(=O)(=O)c1cc(Oc2ccnc(C#N)c2)ccc1NC(=O)Nc1ccc2c(c1)C(F)(F)OC(F)(F)O2 [Entry 141, {[4-(2-cyano(4-pyridyl)oxy)-2-(methylsulfonyl)phenyl]amino}-N-(2,2,4,4-tetrafluorobenzo[3,4-e]1,3-dioxan-6-yl)carboxamide] | 229 to 230
8 | N#Cc1cc(Oc2ccc(NC(=O)Nc3ccc4c(c3)OC(F)(F)O4)cc2F)ccn1 [Entry 113, N-(2,2-difluorobenzo[d]1,3-dioxolan-5-yl){[4-(2-cyano(4-pyridyloxy))-3-fluorophenyl]amino}carboxamide] | 193.5 to 194.5
9 | N#Cc1cc(Oc2ccc(NC(=O)Nc3ccnc(C(F)(F)F)c3)c(F)c2)ccn1 [Entry 142, {[4-(2-cyano(4-pyridyloxy))-2-fluorophenyl]amino}-N-[2-(trifluoromethyl)(4-pyridyl)]carboxamide] | 192 to 193
10 | Cc1ccc2cc(NC(=O)Nc3ccc(Oc4ccnc(C#N)c4)cc3)ccc2n1 [Entry 154, {[4-(2-cyano(4-pyridyloxy))phenyl]amino}-N-(2-methyl(6-quinolyl))carboxamide] | 245.5
11 | N#Cc1cc(Oc2ccc(NC(=O)Nc3ccc4c(c3)OC(F)(F)O4)cc2)ccn1 [Entry 109, N-(2,2-difluorobenzo[d]1,3-dioxolan-5-yl){[4-(2-cyano(4-pyridyloxy))phenyl]amino}carboxamide] | 199 to 200
12 | N#Cc1cc(Oc2ccc(NC(=O)Nc3cc4ccccc4cn3)cc2)ccn1 [Entry 159, {[4-(2-cyano(4-pyridyloxy))phenyl]amino}-N-(3-isoquinolyl)carboxamide] | 208 to 212
13 | CC(C)(C)c1ccnc(NC(=O)Nc2ccc(Oc3ccnc(C#N)c3)cc2)c1 [Entry 143, N-[4-(tert-butyl)(2-pyridyl)]{[4-(2-cyano(4-pyridyloxy))phenyl]amino}carboxamide] | 216 to 217
14 | CCc1ccnc(NC(=O)Nc2ccc(Oc3ccnc(C#N)c3)cc2)c1 [Entry 153, {[4-(2-cyano(4-pyridyloxy))phenyl]amino}-N-(4-ethyl(2-pyridyl))carboxamide] | 209 to 210
15 | CSc1cc(Oc2ccnc(C#N)c2)ccc1NC(=O)Nc1ccc2c(c1)C(F)(F)OC(F)(F)O2 [Entry 140, {[4-(2-cyano(4-pyridyl)oxy)-2-methylthiophenyl]amino}-N-(2,2,4,4-tetrafluorobenzo[3,4-e]1,3-dioxan-6-yl)carboxamide] | 183 to 185
16 | N#Cc1cc(Oc2ccc(NC(=O)Nc3ccc4c(c3)C(F)(F)OC(F)(F)O4)c(C(F)(F)F)c2)ccn1 [Entry 128, {[4-(2-cyano(4-pyridyloxy))-2-(trifluoromethyl)phenyl]amino}-N-(2,2,4,4-tetrafluorobenzo[3,4-e]1,3-dioxan-6-yl)carboxamide] | 220 to 221
17 | N#Cc1cc(Oc2ccc(NC(=O)Nc3ccc4c(c3)C(F)(F)OC(F)(F)O4)c(F)c2F)ccn1 [Entry 129, {[4-(2-cyano(4-pyridyloxy))-2,3-difluorophenyl]amino}-N-(2,2,4,4-tetrafluorobenzo[3,4-e]1,3-dioxan-6-yl)carboxamide] | 181 to 182
